Reference: patent US9458165B2, “DOT1L inhibitors” (Dana-Farber Cancer Institute, Inc., priority 2014, dated 2016)

Experiment: Pharmacokinetic study, intravenous 5 mg/kg
Format: in vivo
Conditions: CD1 mice, 5 mg/kg, FIG. 8B
Description: Pharmacokinetic studies of the compound of Example 1 (i.e. CC-006) and previously disclosed compounds EPZ004777, CC001 (see U.S. 2014/0051654) and FED1 were performed in CD1 mice following intravenous administration, as detailed in Table 1.
Mean plasma concentration-time profiles representative of the compound of Example 1 (i.e. CC-006) after intravenous dosing (5 mg kg^−1) are shown in FIG. 8A (data represent the mean and s.d. (n=3)). […] From the pharmacokinetic properties, the compound of Example 1 (i.e. CC-006) has potential for use in treatment using intravenous administration due to its long half-life, as compared to subcutaneous administration.

SMILES: CC(C)N(C[C@H]1C[C@@H](n2ccc3c(N)ncnc32)[C@H](O)[C@@H]1O)[C@H]1C[C@@H](CCc2nc3cc(C(C)(C)C)ccc3[nH]2)C1 [CC001, reference compound]
- half-life (T1/2): longest half-life of the compounds tested
